Experimental data: patent US12004506B2, “Pharmaceutical composition comprising a cyclic peptide of formula X1-[sequence]-X2 and use for extracorporeal lung treatment” (priority 2013, dated 2024)

What was measured:
[1] = tested on: sodium ion current in A549 cells (deglycosylated cell surface); experiment: Patch clamp assay, whole cell mode, on A549 cells deglycosylated with PNGase F; type: cell-based, human; conditions: 240 nM peptide, Eh -100 mV
[2] = Stability of aqueous solution of the cyclised compound; type: physicochemical
Text: For administration by inhalation/spraying, e.g. in the form of an aerosol, either the aqueous solution from the first dissolution step, or the lyophilisates obtained, re-dissolved in water, is subjected to spraying (atomizing) to obtain an aerosol, e.g. by use of a nebulizer. […] The appropriate lower limit of the droplet size is dependent only from the feasibility of the droplets.

[3] = Particle size of aerosol droplets after nebulizing the aqueous solution; type: physicochemical
Method: With the aid of nebulizers the aqueous solution of a cyclised compound of formula I, namely that of the amino acid sequence SEQ ID NO: 1 was transferred into an aerosol. The particle size of the droplets was measured after subjecting the aqueous solution to 3 different nebulizers and is set out in Table II below: […]

[4] = tested on: sodium ion current in A549 cells (deglycosylated cell surface); experiment: Patch clamp assay, whole cell mode, on A549 cells deglycosylated with PNGase F; type: cell-based, human; conditions: 240 nM peptide, Eh -100 mV, A549
Method: In whole cell mode experiments as described above, A549 cells were incubated with “PNGase enzyme F” (Peptide-N^4-(N-acetyl-β-D-glucosaminyl)asparagine amidase F) 100 units for 1-5 minutes immediately prior to the patch clamp measurements and glass cover slips with the cultured cells were rinsed with external solution before being transferred to the chamber of the 1 mL bath.
The results of the deglycosylation experiments using the patch clamp assay in whole cell mode are presented in Table IV, wherein the effect of deglycosylation of A549 cells on activation of sodium ion current by peptides of SEQ ID NO:1 to SEQ ID NO:7 is indicated. Whole cell currents were recorded at Eh=−100 mV.

[5] = tested on: non-ischemic pig donor lung; experiment: Ex vivo lung perfusion (EVLP) of non-ischemic pig donor lungs, inhalative application; conditions: inhalative application, 1 mg/kg, hourly T1 to T4, vs WFI control
Method: Brain death pigs were turned into dorsal position, and a longitudinal sternotomy was performed. The pericardium and both pleural cavities were opened. […] An inflow catheter was placed in the pulmonary artery through a purse-string on the right ventricular outflow tract.
The lungs (non-ischemic) were then preserved with an ante grade flush of cold isotonic preservation solution (50 ml per kg body weigh of pig, containing potassium ions, sodium ions, magnesium ions, calcium ions, chloride ions, dextran, glucose, buffering ions) through the inflow catheter. Incision of the left auricular appendix provides outflow. The lungs were ventilated during this period with 50% oxygen, and iced slush were placed in both pleural cavities and mediastinum.
The explanation technique was en bloc harvesting with heart and esophagus according to the following steps: • a) Dissection of soft tissue bridges to the thoracic cavity on both sides of the trachea. • b) Transsection of both pulmonal ligaments (very deep, difficult exposure), then of the VCI, the lower thoracic descendent aorta and the esophagus, respectively. • c) Blunt separation from remaining mediastinal adhesions. • d) Complete inflation of the donor lung prior of tracheal closure with a stapler.
After explantation, the lungs were wrapped in gauze, placed in an insulated ice bag filled with low-potassium dextran extracellular solution, and stored at 4° C. for 18 to 24 hours. A temperature probe was submerged in the container, which will be placed in a refrigerator.
For ex-vivo lung conditioning, the EVLP technique ([…]) was used. In the EVLP technique, donor lungs are placed into a circuit composed of a pump, ventilator and filters. EVLP technique, the temperature may increased up to 37 °C. In the EVLP, a ventilator is used to deliver oxygen to the lungs. The pump is used to perfuse the lungs with an extracellular solution containing human albumin and nutrition. During EVLP, the lung function can be evaluated regularly on key indicators. […]

[6] = laboratory syringe, 2 to 8° C., T = 0 and T = 7 days
[7] = storage tank of a nebulizer, 25° C., T = 0 and T = 24 hours

SMILES: C[C@@H]1NC(=O)CNC(=O)[C@H](CCC(=O)O)NC(=O)[C@@H]2CCCN2C(=O)[C@H]([C@@H](C)O)NC(=O)[C@H](CCC(=O)O)NC(=O)[C@H](CCCNC(=N)N)NC(=O)[C@H](CCC(N)=O)NC(=O)CNC(=O)[C@@H](N)CSSC[C@@H](C(=O)O)NC(=O)[C@H](Cc2ccc(O)cc2)NC(=O)[C@H](Cc2c[nH]c3ccccc23)NC(=O)[C@@H]2CCCN2C(=O)[C@H](CCCCN)NC(=O)[C@H](C)NC(=O)[C@H](CCC(=O)O)NC1=O [SEQ ID NO: 1]
- Whole cell current, no pre-treatment with PNGase F [1]: 1073.3 ± 15.1 pA
- Purity (stability) ([2]; laboratory syringe, 2 to 8° C., T = 0): 96.3%
- Amount/Content [2, 6]: 25 mg/mL
- Appearance of aqueous solution [2, 6]: Clear solution
- Purity (stability) ([2]; laboratory syringe, 2 to 8° C., T = 7 days): 96.2%
- Purity (stability) ([2]; storage tank of a nebulizer, 25° C., T = 0): 96.6%
- Amount/Content [2, 7]: 25 mg/mL
- Appearance of aqueous solution [2, 7]: Clear solution
- Purity (stability) ([2]; storage tank of a nebulizer, 25° C., T = 24 hours): 96.5%
- Amount of particles with Ø ≤ 5 μm ([3]; nebulizer Type A): 50%
- Median particle diameter ([3]; nebulizer Type A): 4.7 μm
- Amount of particles with Ø ≤ 5 μm ([3]; nebulizer Type B): 70%
- Median particle diameter ([3]; nebulizer Type B): 3.3 μm
- Amount of particles with Ø ≤ 5 μm ([3]; nebulizer Type C): 65%
- Median particle diameter ([3]; nebulizer Type C): 3.7 μm
- Whole cell current, pre-treatment with PNGase F [4]: 19.6 pA (n = 3)
- dynamic lung compliance ([5]; FIG. 2A): improved
- arterio-venous pO2 difference ΔpO2 ([5]; FIG. 2B): improved
